Test results reported in patent publication US12391648B2, “Pyridyloxy thioester derivative and preparation method therefor, herbicidal composition, and application” (Qingdao Kingagroot Chemical Compound Co., Ltd., priority 2018, dated 2025).

Columns and labels:
Assay type in all cases: in vivo
Monochoria vaginalis [1] = assay: Post-emergence test experiment (Table 3, 1000 g/ha); details: post-emergence spray, after 3 weeks, fresh weight inhibition
How it was run: (§1)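 Activity graded levels 0-5 by fresh-weight inhibition (level 5 above 85%, level 0 below 5%), assessed 3 weeks after treatment. Plants grown in greenhouse pots were sprayed post-emergence at 2-3 leaves using acetone/tween-80 solutions with methyl oleate synergist (1.5 L/ha).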

Setaria viridis = assay: as above; details: post-emergence spray, after 3 weeks, fresh weight inhibition
How it was run: as §1

Digitaria sanguinalis = assay: as above; details: post-emergence spray, after 3 weeks, fresh weight inhibition
How it was run: as §1

Galium spurium = assay: as above; details: post-emergence spray, after 3 weeks, fresh weight inhibition
How it was run: as §1

Abutilon theophrasti = assay: as above; details: post-emergence spray, after 3 weeks, fresh weight inhibition
How it was run: as §1

Leptochloa chinensis = assay: as above; details: post-emergence spray, after 3 weeks, fresh weight inhibition
How it was run: as §1

Monochoria vaginalis [2] = assay: Weed control effect evaluation in rice field; details: paddy water application at 0.5 leaf stage, 14 days after treatment, weeds resistant to pyrazosulfuron-ethyl and penoxsulam
From the text: (§2) The activity level standard of harmful plants destruction (i. e. growth inhibition rate) is as follows: • Level 5: the growth inhibition rate is greater than 85%; • Level 4: the growth inhibition rate is equal to or greater than 60% and less than 85%; • Level 3: the growth inhibition rate is equal to or greater than 40% and less than 60%; • Level 2: the growth inhibition rate is equal to or greater than 20% and less than 40%; • Level 1: the growth inhibition rate is equal to or greater than 5% and less than 20%; • Level 0: the growth inhibition rate is less than 5%;
(§3) Transplanted rice safety evaluation and weed control effect evaluation in rice field:
Rice field soil was loaded into a 1/1,000,000 ha pot. The seeds of Monochoria vaginalis were sowed and gently covered with soil, then left to stand still in greenhouse in the state of 0.5-1 cm of water storage. It was kept at 3-4 cm of water storage thereafter. The weeds were treated by dripping the WP or SC water diluents prepared according to the common preparation method of the compounds of the present invention with pipette homogeneously to achieve specified effective amount when Monochoria vaginalis reached 0. 5 leaf stage.
(§4) The fertility condition of Monochoria vaginalis 14 days and rice 21 days after the treatment of the compound of the invention with the naked eye.
Note: The seeds of Monochoria vaginalis were collected from Heilongjing Province of China.

[3] = tested on: ALS resistant Echinochloa crusgalli; assay: Post-emergence test experiment (Table 4), weed control; details: 600 g/ha active ingredient, plus water 450 kg/ha, after 3 weeks
From the text: as §2
(§5) The above described growth inhibition rate is fresh weight inhibition rate.
(§6) Post-emergence test experiment: Monocotyledonous and dicotyledonous weed seeds and main crop seeds (i. e. wheat, corn, rice, soybean, cotton, oilseed, millet and sorghum.) were put into a plastic pot loaded with soil. Then covered with 0.5-2 cm soil, the seeds were allowed to grow in good greenhouse environment. The test plants were treated at 2-3 leaf stage 2 weeks after sowing. The test compounds of the invention were dissolved with acetone respectively, then added with tween-80, and using 1.5 liters per hectare of an emulsible concentrate of methyl oleate as a synergist, and diluted by certain amount of water to certain concentration. The solution was sprayed to the plants with a sprayer. Then the plants were cultured for 3 weeks in the greenhouse, and the experiment result of weed controlling effect after 3 weeks was listed in tables 3-4.
(§7) […] Echinochloa crusgalli and Cyperus iria were collected from Ningxia Hui Autonomous Region of China, which had evolved resistance to ALS inhibiting herbicides. • Control compound A:

[4] = tested on: ALS resistant Cyperus iria; assay: as above; details: 600 g/ha active ingredient, plus water 450 kg/ha, after 3 weeks
From the text: as §2, §5, §6, §7

rice (japonica rice) = assay: Transplanted rice safety evaluation; details: 1000 g/ha, transplanted 3-leaf stage japonica rice, treated 5 days after transplantation, 21 days after treatment
From the text: as §2, §3
In addition, the rice field soil that loaded into the 1/1,000,000 ha pot was leveled to keep water storage at 3-4 cm depth. The 3-leaf stage rice (japonica rice) was transplanted at 3 cm of transplanting depth the next day. The compound of the present invention was treated by the same way after 5 days of transplantation.
as §4

Japonica rice = assay: Post-emergence test experiment (Table 4), crop safety; details: 600 g/ha active ingredient, plus water 450 kg/ha, after 3 weeks
From the text: as §2, §5, §6, §7

Indica rice = assay: as above; details: 600 g/ha active ingredient, plus water 450 kg/ha, after 3 weeks
From the text: as §2, §5, §6, §7

| Compound | Activity level (growth inhibition rate) Monochoria Vaginalis (Monochoria vaginalis [1]) | Activity level (growth inhibition rate) Setaria viridis (Setaria viridis) | Activity level (growth inhibition rate) Digitaria sanguinalis (Digitaria sanguinalis) | Activity level (growth inhibition rate) Galium spurium (Galium spurium) | Activity level (growth inhibition rate) Abutilon theophrasti (Abutilon theophrasti) | Activity level (growth inhibition rate) Leptochloa chinensis (Leptochloa chinensis) | Monochoria Vaginalis, activity standard level 0-5 (Monochoria vaginalis [2]; 1000 g/ha) | ALS resistant Echinochloa crusgalli, activity level (growth inhibition rate) [3] | ALS resistant Cyperus iria, activity level (growth inhibition rate) [4] | Rice, activity standard level 0-5 (safety) (rice (japonica rice)) | Japonica rice, activity level (growth inhibition rate) (Japonica rice) | Indica rice, activity level (growth inhibition rate) (Indica rice) | Monochoria Vaginalis, activity standard level 0-5 (Monochoria vaginalis [2]; 50 g/ha) |
| --- | --- | --- | --- | --- | --- | --- | --- | --- | --- | --- | --- | --- | --- |
| CCSC(=O)C(C)Oc1nc(F)c(Cl)c(N)c1Cl (stereo not shown) [Compound 66] | 5 (Level 5: the growth inhibition rate is greater than 85%) | 5 (Level 5: the growth inhibition rate is greater than 85%) | 5 (Level 5: the growth inhibition rate is greater than 85%) | 5 (Level 5: the growth inhibition rate is greater than 85%) | 5 (Level 5: the growth inhibition rate is greater than 85%) | 5 (Level 5: the growth inhibition rate is greater than 85%) | 5 (Level 5: the growth inhibition rate is greater than 85%) | 5 (Level 5: the growth inhibition rate is greater than 85%) | 5 (Level 5: the growth inhibition rate is greater than 85%) | 0 (Level 0: the growth inhibition rate is less than 5%) | 0 (Level 0: the growth inhibition rate is less than 5%) | 0 (Level 0: the growth inhibition rate is less than 5%) | – |
| CSC(=O)C(C)Oc1nc(F)c(C)c(N)c1C (stereo not shown) [Compound 7] | 5 (Level 5: the growth inhibition rate is greater than 85%) | 5 (Level 5: the growth inhibition rate is greater than 85%) | 5 (Level 5: the growth inhibition rate is greater than 85%) | 5 (Level 5: the growth inhibition rate is greater than 85%) | 5 (Level 5: the growth inhibition rate is greater than 85%) | 5 (Level 5: the growth inhibition rate is greater than 85%) | 5 (Level 5: the growth inhibition rate is greater than 85%) | 5 (Level 5: the growth inhibition rate is greater than 85%) | 5 (Level 5: the growth inhibition rate is greater than 85%) | 0 (Level 0: the growth inhibition rate is less than 5%) | 0 (Level 0: the growth inhibition rate is less than 5%) | 0 (Level 0: the growth inhibition rate is less than 5%) | – |
| CC(Cl)CCSC(=O)C(C)Oc1nc(F)c(Cl)c(N)c1Cl (stereo not shown) [Compound 77] | 5 (Level 5: the growth inhibition rate is greater than 85%) | 5 (Level 5: the growth inhibition rate is greater than 85%) | 5 (Level 5: the growth inhibition rate is greater than 85%) | 5 (Level 5: the growth inhibition rate is greater than 85%) | 5 (Level 5: the growth inhibition rate is greater than 85%) | 5 (Level 5: the growth inhibition rate is greater than 85%) | 5 (Level 5: the growth inhibition rate is greater than 85%) | 5 (Level 5: the growth inhibition rate is greater than 85%) | 5 (Level 5: the growth inhibition rate is greater than 85%) | 0 (Level 0: the growth inhibition rate is less than 5%) | 0 (Level 0: the growth inhibition rate is less than 5%) | 0 (Level 0: the growth inhibition rate is less than 5%) | – |
| CSC(=O)C(C)Oc1nc(F)c(Cl)c(NCc2ccco2)c1Cl (stereo not shown) [Compound 130] | 5 (Level 5: the growth inhibition rate is greater than 85%) | 5 (Level 5: the growth inhibition rate is greater than 85%) | 5 (Level 5: the growth inhibition rate is greater than 85%) | 5 (Level 5: the growth inhibition rate is greater than 85%) | 5 (Level 5: the growth inhibition rate is greater than 85%) | 5 (Level 5: the growth inhibition rate is greater than 85%) | 5 (Level 5: the growth inhibition rate is greater than 85%) | 5 (Level 5: the growth inhibition rate is greater than 85%) | 5 (Level 5: the growth inhibition rate is greater than 85%) | 0 (Level 0: the growth inhibition rate is less than 5%) | 0 (Level 0: the growth inhibition rate is less than 5%) | 0 (Level 0: the growth inhibition rate is less than 5%) | – |
| COc1cnc(OC)n2nc(NS(=O)(=O)c3c(OCC(F)F)cccc3C(F)(F)F)nc12 [Penoxsulam, reference compound] | – | – | – | – | – | – | – | – | – | – | – | – | 1 (Level 1: the growth inhibition rate is equal to or greater than 5% and less than 20%) |
| CC(Oc1nc(F)c(Cl)c(N)c1Cl)C(=O)SCCCC(F)(F)F (stereo not shown) [Compound 79] | 5 (Level 5: the growth inhibition rate is greater than 85%) | 5 (Level 5: the growth inhibition rate is greater than 85%) | 5 (Level 5: the growth inhibition rate is greater than 85%) | 5 (Level 5: the growth inhibition rate is greater than 85%) | 5 (Level 5: the growth inhibition rate is greater than 85%) | 5 (Level 5: the growth inhibition rate is greater than 85%) | 5 (Level 5: the growth inhibition rate is greater than 85%) | 5 (Level 5: the growth inhibition rate is greater than 85%) | 5 (Level 5: the growth inhibition rate is greater than 85%) | 0 (Level 0: the growth inhibition rate is less than 5%) | 0 (Level 0: the growth inhibition rate is less than 5%) | 0 (Level 0: the growth inhibition rate is less than 5%) | – |
